Assays:
Assay in all cases: relative viability (nuclei count vs DMSO), 5 days (fraction); higher = more cells survive
A549 = test system: A549
Method in brief: (§1)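 Lung cancer cell lines were pin-tool dosed in 1536-well plates on the day after seeding, with either a lone drug or a fixed anchor-drug dose plus five library-drug doses (not always all listed) in √10 steps. Nuclei were counted on 4× images after 5 days. Relative viability is the ratio of treated-well to vehicle-well nuclei counts, with each value a median of duplicate plates.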

NCI-H1623 = test system: NCI-H1623
Method in brief: as §1

NCI-H661 = test system: NCI-H661
Method in brief: as §1

Calu-6 = test system: Calu-6
Method in brief: as §1

EBC-1 = test system: EBC-1
Method in brief: as §1

IA-LM = test system: IA-LM
Method in brief: as §1

NCI-H1299 = test system: NCI-H1299
Method in brief: as §1

NCI-H1648 = test system: NCI-H1648
Method in brief: as §1

NCI-H1703 = test system: NCI-H1703
Method in brief: as §1

## Clc1ccc(Nc2nnc(Cc3ccncc3)c3ccccc23)cc1 [Vatalanib] + N=C(N)NC(=N)NCCc1ccccc1 [Phenformin] (partner 250 µM)
A549; first compound 0.04 µM
  relative viability: 0.206
A549; first compound 0.1265 µM
  relative viability: 0.131
A549; first compound 0.4 µM
  relative viability: 0.104
A549; first compound 1.265 µM
  relative viability: 0.143
A549; first compound 4 µM
  relative viability: 0.154
NCI-H1623; first compound 0.04 µM
  relative viability: 0.584
NCI-H1623; first compound 0.1265 µM
  relative viability: 0.577
NCI-H1623; first compound 0.4 µM
  relative viability: 0.514
NCI-H1623; first compound 1.265 µM
  relative viability: 0.581
NCI-H1623; first compound 4 µM
  relative viability: 0.524
NCI-H661; first compound 0.04 µM
  relative viability: 0.32
NCI-H661; first compound 0.1265 µM
  relative viability: 0.248
NCI-H661; first compound 0.4 µM
  relative viability: 0.304
NCI-H661; first compound 1.265 µM
  relative viability: 0.267
NCI-H661; first compound 4 µM
  relative viability: 0.286

## CC(C)Oc1cc(Nc2nc(N[C@@H](C)c3ccc(F)cn3)ncc2Cl)n[nH]1 [AZ23] + O=C(c1cc(Cc2n[nH]c(=O)c3ccccc23)ccc1F)N1CCN(C(=O)C2CC2)CC1 [Olaparib] (partner 8 µM)
A549; first compound 0.01 µM
  relative viability: 0.201
A549; first compound 0.03162 µM
  relative viability: 0.54
A549; first compound 0.3162 µM
  relative viability: 0.327
Calu-6; first compound 0.03162 µM
  relative viability: 0.662
Calu-6; first compound 0.3162 µM
  relative viability: 0.644
EBC-1; first compound 0.01 µM
  relative viability: 0.884
EBC-1; first compound 0.03162 µM
  relative viability: 0.767
EBC-1; first compound 0.3162 µM
  relative viability: 0.734
IA-LM; first compound 0.01 µM
  relative viability: 0.79
IA-LM; first compound 0.03162 µM
  relative viability: 0.914
IA-LM; first compound 0.3162 µM
  relative viability: 0.949
NCI-H1299; first compound 0.01 µM
  relative viability: 1.06
NCI-H1299; first compound 0.03162 µM
  relative viability: 0.984
NCI-H1299; first compound 0.3162 µM
  relative viability: 1.03
NCI-H1648; first compound 0.01 µM
  relative viability: 0.6
NCI-H1648; first compound 0.03162 µM
  relative viability: 1.01
NCI-H1648; first compound 0.3162 µM
  relative viability: 0.697
NCI-H1703; first compound 0.03162 µM
  relative viability: 0.411
NCI-H1703; first compound 0.3162 µM
  relative viability: 0.397
NCI-H661; first compound 0.01 µM
  relative viability: 0.823
NCI-H661; first compound 0.03162 µM
  relative viability: 0.792
NCI-H661; first compound 0.3162 µM
  relative viability: 0.738

## CC(C)Oc1cc(Nc2nc(N[C@@H](C)c3ccc(F)cn3)ncc2Cl)n[nH]1 [AZ23] + Cc1nc(Nc2ncc(C(=O)Nc3c(C)cccc3Cl)s2)cc(N2CCN(CCO)CC2)n1 [Dasatinib] (partner 0.075 µM)
NCI-H1623; first compound 0.01 µM
  relative viability: 0.503
NCI-H1623; first compound 0.03162 µM
  relative viability: 0.578
NCI-H1623; first compound 0.3162 µM
  relative viability: 0.57
NCI-H661; first compound 0.01 µM
  relative viability: 0.948
NCI-H661; first compound 0.03162 µM
  relative viability: 1.02
NCI-H661; first compound 0.3162 µM
  relative viability: 0.847

## Clc1ccc(Nc2nnc(Cc3ccncc3)c3ccccc23)cc1 [Vatalanib] + Cc1nc(Nc2ncc(C(=O)Nc3c(C)cccc3Cl)s2)cc(N2CCN(CCO)CC2)n1 [Dasatinib] (partner 0.075 µM)
NCI-H1623; first compound 0.04 µM
  relative viability: 0.449
NCI-H1623; first compound 0.1265 µM
  relative viability: 0.619
NCI-H1623; first compound 0.4 µM
  relative viability: 0.545
NCI-H1623; first compound 1.265 µM
  relative viability: 0.533
NCI-H1623; first compound 4 µM
  relative viability: 0.435
NCI-H661; first compound 0.04 µM
  relative viability: 0.935
NCI-H661; first compound 0.1265 µM
  relative viability: 0.854
NCI-H661; first compound 0.4 µM
  relative viability: 1.06
NCI-H661; first compound 1.265 µM
  relative viability: 0.853
NCI-H661; first compound 4 µM
  relative viability: 0.804

## CC(C)Oc1cc(Nc2nc(N[C@@H](C)c3ccc(F)cn3)ncc2Cl)n[nH]1 [AZ23] + CCNC(=O)c1noc(-c2cc(C(C)C)c(O)cc2O)c1-c1ccc(CN2CCOCC2)cc1 [Luminespib] (partner 0.01 µM)
NCI-H1623; first compound 0.01 µM
  relative viability: 0.476
NCI-H1623; first compound 0.03162 µM
  relative viability: 0.49
NCI-H1623; first compound 0.3162 µM
  relative viability: 0.529
NCI-H661; first compound 0.01 µM
  relative viability: 1.06
NCI-H661; first compound 0.03162 µM
  relative viability: 0.867
NCI-H661; first compound 0.3162 µM
  relative viability: 0.984

## C[C@@H]1CN(CC(=O)Nc2ccc3c(c2)Cc2cccc(-c4cc(=O)cc(N5CCOCC5)o4)c2S3)C[C@H](C)O1 + O=C(c1cc(Cc2n[nH]c(=O)c3ccccc23)ccc1F)N1CCN(C(=O)C2CC2)CC1 [Olaparib] (partner 8 µM)
A549; first compound 0.04 µM
  relative viability: 0.239
A549; first compound 0.1265 µM
  relative viability: 0.334
A549; first compound 0.4 µM
  relative viability: 0.332
A549; first compound 4 µM
  relative viability: 0.0917
Calu-6; first compound 0.04 µM
  relative viability: 0.646
Calu-6; first compound 0.1265 µM
  relative viability: 0.573
Calu-6; first compound 0.4 µM
  relative viability: 0.672
Calu-6; first compound 4 µM
  relative viability: 0.299
EBC-1; first compound 0.04 µM
  relative viability: 0.736
EBC-1; first compound 0.1265 µM
  relative viability: 0.723
EBC-1; first compound 0.4 µM
  relative viability: 0.494
EBC-1; first compound 4 µM
  relative viability: 0.147
IA-LM; first compound 0.04 µM
  relative viability: 0.844
IA-LM; first compound 0.1265 µM
  relative viability: 0.976
IA-LM; first compound 0.4 µM
  relative viability: 0.792
IA-LM; first compound 4 µM
  relative viability: 0.207
NCI-H1299; first compound 0.04 µM
  relative viability: 1.08
NCI-H1299; first compound 0.1265 µM
  relative viability: 1
NCI-H1299; first compound 0.4 µM
  relative viability: 1.05
NCI-H1299; first compound 4 µM
  relative viability: 0.488
NCI-H1648; first compound 0.04 µM
  relative viability: 0.56
NCI-H1648; first compound 0.1265 µM
  relative viability: 1.08
NCI-H1648; first compound 0.4 µM
  relative viability: 0.879
NCI-H1648; first compound 4 µM
  relative viability: 0.56
NCI-H1703; first compound 0.04 µM
  relative viability: 0.489
NCI-H1703; first compound 0.1265 µM
  relative viability: 0.407
NCI-H1703; first compound 0.4 µM
  relative viability: 0.295
NCI-H1703; first compound 4 µM
  relative viability: 0.208
NCI-H661; first compound 0.04 µM
  relative viability: 0.814
NCI-H661; first compound 0.1265 µM
  relative viability: 0.77
NCI-H661; first compound 0.4 µM
  relative viability: 0.784
NCI-H661; first compound 4 µM
  relative viability: 0.622

## Clc1ccc(Nc2nnc(Cc3ccncc3)c3ccccc23)cc1 [Vatalanib] + O=C(c1cc(Cc2n[nH]c(=O)c3ccccc23)ccc1F)N1CCN(C(=O)C2CC2)CC1 [Olaparib] (partner 8 µM)
A549; first compound 0.04 µM
  relative viability: 0.478
A549; first compound 0.1265 µM
  relative viability: 0.302
A549; first compound 0.4 µM
  relative viability: 0.532
A549; first compound 1.265 µM
  relative viability: 0.239
A549; first compound 4 µM
  relative viability: 0.3
Calu-6; first compound 0.1265 µM
  relative viability: 0.567
Calu-6; first compound 0.4 µM
  relative viability: 0.539
Calu-6; first compound 1.265 µM
  relative viability: 0.554
Calu-6; first compound 4 µM
  relative viability: 0.541
EBC-1; first compound 0.04 µM
  relative viability: 0.761
EBC-1; first compound 0.1265 µM
  relative viability: 0.59
EBC-1; first compound 0.4 µM
  relative viability: 0.817
EBC-1; first compound 1.265 µM
  relative viability: 0.663
EBC-1; first compound 4 µM
  relative viability: 0.654
IA-LM; first compound 0.04 µM
  relative viability: 0.89
IA-LM; first compound 0.1265 µM
  relative viability: 0.843
IA-LM; first compound 0.4 µM
  relative viability: 0.831
IA-LM; first compound 1.265 µM
  relative viability: 0.701
IA-LM; first compound 4 µM
  relative viability: 0.645
NCI-H1299; first compound 0.04 µM
  relative viability: 0.986
NCI-H1299; first compound 0.1265 µM
  relative viability: 0.924
NCI-H1299; first compound 0.4 µM
  relative viability: 1.04
NCI-H1299; first compound 1.265 µM
  relative viability: 0.923
NCI-H1299; first compound 4 µM
  relative viability: 0.965
NCI-H1648; first compound 0.04 µM
  relative viability: 0.943
NCI-H1648; first compound 0.1265 µM
  relative viability: 0.866
NCI-H1648; first compound 0.4 µM
  relative viability: 1.01
NCI-H1648; first compound 1.265 µM
  relative viability: 0.611
NCI-H1648; first compound 4 µM
  relative viability: 1.04
NCI-H1703; first compound 0.04 µM
  relative viability: 0.506
NCI-H1703; first compound 0.4 µM
  relative viability: 0.624
NCI-H1703; first compound 1.265 µM
  relative viability: 0.299
NCI-H1703; first compound 4 µM
  relative viability: 0.22
NCI-H661; first compound 0.04 µM
  relative viability: 0.769
NCI-H661; first compound 0.1265 µM
  relative viability: 0.757
NCI-H661; first compound 0.4 µM
  relative viability: 0.788
NCI-H661; first compound 1.265 µM
  relative viability: 0.73
NCI-H661; first compound 4 µM
  relative viability: 0.706

## Clc1ccc(Nc2nnc(Cc3ccncc3)c3ccccc23)cc1 [Vatalanib] + C[C@@H](Oc1cc(-c2cnn(C3CCNCC3)c2)cnc1N)c1c(Cl)ccc(F)c1Cl [Crizotinib] (partner 1 µM)
A549; first compound 0.04 µM
  relative viability: 0.857
A549; first compound 0.1265 µM
  relative viability: 0.843
A549; first compound 0.4 µM
  relative viability: 0.907
A549; first compound 1.265 µM
  relative viability: 0.597
A549; first compound 4 µM
  relative viability: 0.713
Calu-6; first compound 0.04 µM
  relative viability: 0.756
Calu-6; first compound 0.1265 µM
  relative viability: 0.662
Calu-6; first compound 0.4 µM
  relative viability: 0.779
Calu-6; first compound 1.265 µM
  relative viability: 0.779
Calu-6; first compound 4 µM
  relative viability: 0.643
EBC-1; first compound 0.04 µM
  relative viability: 0.218
EBC-1; first compound 0.1265 µM
  relative viability: 0.178
EBC-1; first compound 0.4 µM
  relative viability: 0.176
EBC-1; first compound 1.265 µM
  relative viability: 0.191
EBC-1; first compound 4 µM
  relative viability: 0.21
IA-LM; first compound 0.04 µM
  relative viability: 0.649
IA-LM; first compound 0.1265 µM
  relative viability: 0.875
IA-LM; first compound 0.4 µM
  relative viability: 0.724
IA-LM; first compound 1.265 µM
  relative viability: 0.743
IA-LM; first compound 4 µM
  relative viability: 0.721
NCI-H1299; first compound 0.04 µM
  relative viability: 0.956
NCI-H1299; first compound 0.1265 µM
  relative viability: 0.96
NCI-H1299; first compound 0.4 µM
  relative viability: 0.957
NCI-H1299; first compound 1.265 µM
  relative viability: 0.964
NCI-H1299; first compound 4 µM
  relative viability: 0.965
NCI-H1703; first compound 0.04 µM
  relative viability: 0.669
NCI-H1703; first compound 0.1265 µM
  relative viability: 0.77
NCI-H1703; first compound 0.4 µM
  relative viability: 0.866
NCI-H1703; first compound 1.265 µM
  relative viability: 0.524
NCI-H1703; first compound 4 µM
  relative viability: 0.303
NCI-H661; first compound 0.04 µM
  relative viability: 1.03
NCI-H661; first compound 0.4 µM
  relative viability: 0.986
NCI-H661; first compound 1.265 µM
  relative viability: 0.885
NCI-H661; first compound 4 µM
  relative viability: 0.872

Reference: the supplement of paper PMC10307832
